According to US9084770B2, “Modulation of insulin like growth factor I receptor expression in cancer” (Antisense Therapeutics, Ltd., priority 2008, dated 2015):
Where two headings read alike, the source gives them in different places. Blank lines part the entries; values can stand above or below the molecule they belong to.

What was measured:
[1] = test system: Ptx-R PC3 cells; assay: Growth of Paclitaxel resistant Ptx-R PC3 cells with chemotherapeutic agents; format: cell-based, human; conditions: read-out: IC50 (cell growth)
From the text: (§1) PC3 cells cultured in vitro were selected for resistance to Paclitaxel (Ptx-R).

[2] = test system: PC3 cells; assay: Growth of PC3 cells with chemotherapeutic agents; format: cell-based, human; conditions: read-out: IC50 (cell growth)
From the text: as §1

[3] = test system: PC3 cells; assay: PC3 viable cells and apoptosis after transfection plus Paclitaxel; conditions: Homo sapiens, PC-3, 72 h, read-out: reduction of viable cell count
Method: PC3 cells cultured in vitro were transfected at concentrations of IGF-IR antisense oligonucleotide (ATL1101) or control oligodeoxynucleotide (ISIS 306064) ranging from 12.5 nM to 50 nM or oligofectamine control once per day on two sequential days. After the 2nd transfection, the PC3 cells were treated with concentrations of between 0.1 to 50 nM Paclitaxel. The number of viable cells remaining were determined 72 hours after Paclitaxel treatment.

[4] = test system: IGF-IR mRNA; assay: IGF-IR mRNA in PC3 Ptx-R cells; format: cell-based, human; conditions: 10 to 200 nM, compared to oligofectamine transfection reagent
From the text: (§2) The PC3 Ptx-R cells retain sensitivity to ATL1101-induced IGF-IR down regulation at the mRNA and protein level as shown in FIGS. 11A-C. […] ATL1101 and the control oligodeoxynucleotide ISIS 306064 had no effect on either of the alternative spliced isoform transcripts of the insulin receptor, IR-A, IR-B or IR-β protein or vinculin protein levels.

[5] = test system: IGF-IRβ subunit protein; assay: IGF-IRβ subunit protein in PC3 Ptx-R cells; format: cell-based, human; conditions: 10 to 200 nM, compared to oligofectamine transfection reagent
From the text: as §2

[6] = test system: PC3 cells; assay: PC3 cell cycle and apoptosis, flow cytometry with propidium iodide; format: cell-based, human; conditions: PC3, FBS condition, 200 nM
Method: (§3) Established methods were used to test the activity of IGF-IR antisense oligonucleotide on LNCaP and PC-3 cell growth (crystal violet assay) and apoptosis (FACS). Dose- and sequence-specific suppression of IGF-IR mRNA and protein expression in ATL1101-treated LNCaP and PC3 PC cell lines in vitro were observed by QT-PCR and western blotting. Effects of the IGF-IR antisense oligonucleotide on various putative targets, including IGF-IR and downstream targets were evaluated using western blotting.
(§4) The Effect of IGF-IR silencing with IGF-IR antisense oligonucleotide (ATL1101) on LNCaP and PC3 cell apoptosis and cell cycle is shown in FIGS. 4A(i)-(ii), 4B, 4C(i)-(ii), and Table 2. Cells were transfected with indicated concentrations of ATL1101, control oligodeoxynucleotide or oligofectamine as in FIGS. 1A(i)-1B(ii). Two days after treatment, cell cycle analysis was determined by flow cytometry using propidium iodide staining. […] In FIGS. 4C(i)-(ii), LNCaP (FIG. 4C (i)) or PC-3 (FIG. 4C (ii)) cells were transfected with indicated concentration of ATL1101 or control oligodeoxynucleotide (ISIS 306064) for two days. Cells were then cultured in FBS media for one day and in serum-free media for one day. Whole cell lysates (30 μg) were subjected to SDS-PAGE and immunoblotted to assess Cyclin D1, Cyclin E, p-RB, total Rb, and p27 protein levels. Oligo, oligofectamine treated cells only.

[7] = test system: PC3 tumors; assay: PC-3 xenograft with Paclitaxel, mean tumor volume; format: in vivo, mice; conditions: 15 mg/kg i.p. oligonucleotide plus Paclitaxel
From the text: In vivo treatments in a PC-3 xenograft model were done substantially as described by Zellweger et al., 2001. PC3 cells (2×10^6 cells) were xenografted by subcutaneous injection into recipient 6-8 week-old athymic nude (nu/nu) mice. When tumors reached 200 mm^3, mice were randomly assigned to one of two arms for treatment with 2′-MOE-modified IGF-IR antisense oligonucleotide (ATL1101) plus Paclitaxel, or mismatch control oligodeoxynucleotide ISIS 306064 plus Paclitaxel. Each experimental group consisted of 10 mice. After randomization, 15 mg/kg of ATL1101 antisense oligonucleotide or mismatch control oligonucleotide were injected intraperitoneal (i.p.) into each mouse once daily for the first 5 days and 3 times a week (every other day) thereafter for 7 weeks. On days 7, 9, 11, and on days 21, 23, and 25, 0.5 mg of polymeric micellar Paclitaxel was administered once daily by i.v. injection. Mean Tumor volume was measured once weekly for 8 weeks and calculated by the formula length×width×depth×0.5236.
In PC3 mice, after 5 weeks of treatment, mean tumor size in mice treated with Paclitaxel and mismatch control oligodeoxynucleotide was 326+/−40.9 mm^3 compared with 175+/−20.1 mm^3 in mice treated with Paclitaxel and ATL1101, or 53.7% of control (p<0.01). After 8 weeks of treatment, mean tumor size in mice treated with Paclitaxel and mismatch control oligodeoxynucleotide was 1417+/−222 mm^3 compared with 507+/−79.3 mm^3 in mice treated with Paclitaxel and ATL1101, or 35.8% of control (p<0.01).

[8] = test system: IGF-IR mRNA; assay: IGF-IR mRNA expression in transfected LNCaP and PC-3 cells, quantitative RT-PCR; format: cell-based, human; conditions: LNCaP and PC-3 cells, maximal doses tested
Method: as §3
FIGS. 1A(i)-1A(ii) show the sequence-specific and dose-dependent suppression of IGF-IR mRNA expression levels by ATL1101 in LNCaP (FIG. 1A (i)) and PC-3 (FIG. 1A (ii)) cells. […] One day after treatment, total RNA was extracted, and IGF-IR mRNA expression was analyzed by quantitative RT-PCR. IGF-IR mRNA levels were normalized to levels of GAPDH mRNA and expressed here as mean±SE. ***, p<0.001 differ from control (oligofectamine only) by Student's t test. “Control” cells were treated with oligofectamine only. In LNCaP cells, IGF-IR expression was >70% suppressed by 10 nM ATL1101 and >90% at 200 nM ATL1101. In PC3 cells, IGF-IR expression was suppressed ˜40% at 10 nM ATL1101, >50% at 50 nM ATL1101 and ˜80% at 200 nM. Control oligodeoxynucleotide (ISIS 306064) did suppress IGF-IR mRNA expression but by less than 25% at maximal doses tested

[9] = test system: insulin receptor IR-A, IR-B, IR-β protein; assay: Insulin receptor transcripts and protein in PC3 Ptx-R cells; format: cell-based, human
From the text: as §2

[10] = test system: Ptx-R PC3 cells; assay: Ptx-R PC3 viable cells after transfection with or without Paclitaxel; format: cell-based, human; conditions: 100 nM Paclitaxel and 25 nM oligonucleotide
Method: The number of viable PC3 and PtxR PC3 cells was determined 72 hours after the second transfection.
[…] The number of viable cells remaining was determined 72 hours after the second transfection treatment. ATL1101 treatment enhances the Ptx-R sensitivity to Paclitaxel under standard culture conditions. For example, there was approximately 45% cell viability with 100 nM Paclitaxel and 25 nM control oligodeoxynucleotide whereas, only 25 nM Paclitaxel is needed in the presence of 25 nM ATL1101 to produce the same reduction in cell viability.

[11] = test system: LNCaP cells; assay: LNCaP cell cycle and apoptosis, flow cytometry with propidium iodide; format: cell-based, human; conditions: 100 nM
Method: as §3, §4

[12] = test system: PC3 cells; assay: PC3 cell viability, crystal violet assay; format: cell-based, human; conditions: three days after treatment
Method: as §3
(§5) Cells were transfected with indicated concentrations of ATL1101, control oligodeoxynucleotides or oligofectamine as in FIGS. 1A(i)-1A(ii). Three days after treatment, cell viability was determined by crystal violet assay. Viable cell density was normalized to that of cells treated with oligofectamine. Points, means of triplicate analysis; bars, SE. *, p<0.05 differs from control oligodeoxynucleotide treatment group. **, p<0.01 differs from control oligodeoxynucleotide treatment group by Student's t test.

[13] = test system: IGF-IRβ, p-AKT, p-ERK1/2, cleaved PARP; assay: Intracellular signaling in LNCaP and PC3 cells, immunoblot; format: cell-based, human; conditions: 100 nM
Method: The suppression of intracellular signaling in IGF-IR antisense oligonucleotide-treated LNCaP (FIG. 3A) and PC3 (FIG. 3B) in vitro is shown in FIGS. 3A-3B. LNCaP or PC3 cells were transfected with 100 nM ATL1101 or control oligodeoxynucleotide (ISIS 306064) for two days. Cells were then cultured in FBS media for one day and in serum-free media for one day. Whole cell lysates (30 μg) were subjected to SDS-PAGE and immunoblotted to assess IGF-IRβ, p-AKT, total AKT, p-ERK1/2, total ERK1/2, cleaved PARP, and vinculin protein levels. Oligo, oligofectamine treated cells only.

[14] = test system: LNCaP cells; assay: LNCaP cell viability, crystal violet assay; format: cell-based, human; conditions: three days after treatment
Method: as §3, §5

[15] = test system: human IGF-IR mRNA; assay: Antisense inhibition of human IGF-IR mRNA levels by quantitative RT-PCR (Table 1); format: cell-based; design: %INHIB (human IGF-IR mRNA levels): concentration or dose not given beside the values; conditions: quantitative RT-PCR; averages from 3 experiments
[16] = Homo sapiens, PC-3, standard culture conditions

- IC50 [1, 16]: 50.3 nM
- IC50 [2, 16]: 2.56 nM
Molecule: CC(=O)O[C@H]1C(=O)[C@@]2(C)[C@H]([C@H](OC(=O)c3ccccc3)[C@]3(O)C[C@H](OC(=O)[C@H](O)[C@@H](NC(=O)c4ccccc4)c4ccccc4)C(C)=C1C3(C)C)[C@]1(OC(C)=O)CO[C@@H]1C[C@@H]2O [Paclitaxel]
- cytotoxicity at 0.0001 µM [3]: ~5%

Molecule: O=C1c2c(O)ccc(O)c2C(=O)c2c(NCCNCCO)ccc(NCCNCCO)c21 [Mitoxantrone]
- IC50 [1, 16]: 376 nM
- IC50 [2, 16]: 8.8 nM

- IC50 [1, 16]: 10 nM
- IC50 [2, 16]: 0.827 nM
Molecule: CC(=O)O[C@@]12CO[C@@H]1C[C@H](O)[C@@]1(C)C(=O)[C@H](O)C3=C(C)[C@@H](OC(=O)[C@H](O)[C@@H](NC(=O)OC(C)(C)C)c4ccccc4)C[C@@](O)([C@@H](OC(=O)c4ccccc4)[C@H]21)C3(C)C [Docataxel]

Molecule: ISIS 306064: 8 nucleotide mismatch control oligonucleotide; Negative Control ODN (CCAATGATAACAAACGCGGA; chemistry not given here) [reference compound]
- IGF-IR mRNA levels [4]: no effect
- IGF-IRβ subunit protein levels [5]: no effect
- % of total cells, G0/G1 [6]: 58.5%
- % of total cells, G2/M [6]: 18.2%
- % of total cells, S [6]: 13.7%
- % of total cells, Sub G0/G1 [6]: 9.6%
- subG0/G1 + G0/G1:S + G2/M [6]: 2.1
- mean tumor size ([7]; after 5 weeks of treatment): 326+/−40.9 mm^3
- mean tumor size ([7]; after 8 weeks of treatment): 1417+/−222 mm^3
- suppression of IGF-IR mRNA expression [8]: less than 25%
- insulin receptor IR-A, IR-B transcripts or IR-β protein levels [9]: no effect
- cell viability [10]: approximately 45%
- % of total cells, G0/G1 ([11]; CSS condition): 70.1%
- % of total cells, G2/M ([11]; CSS condition): 4.4%
- % of total cells, S ([11]; CSS condition): 3.8%
- % of total cells, Sub G0/G1 ([11]; CSS condition): 21.7%
- subG0/G1 + G0/G1:S + G2/M ([11]; CSS condition): 11.2
- % of total cells, G0/G1 ([11]; FBS condition): 65.4%
- % of total cells, G2/M ([11]; FBS condition): 12.6%
- % of total cells, S ([11]; FBS condition): 11.2%
- subG0/G1 + G0/G1:S + G2/M ([11]; FBS condition): 3.2
- % of total cells, Sub G0/G1 ([11]; FBS condition, two days after treatment): 10.8%
- cytotoxic effect on cell viability [12]: dose-dependent cytotoxic effect
- IGF-IR expression, down-stream kinase signaling and induction of PARP cleavage versus oligofectamine-treated cells [13]: indistinguishable
- cytotoxic effect on cell viability [14]: dose-dependent cytotoxic effect

Molecule: N.N.[Cl][Pt][Cl] [Cisplatin]
- IC50 ([1]; standard culture conditions): 24.7 nM
- IC50 ([2]; standard culture conditions): 10 nM

Molecule: 323734 (antisense TTGGTGCGAATGTACAAGAT; listed as DNA, chemistry not fully specified) [compound 323734]
- %INHIB (human IGF-IR mRNA levels) [15]: 61%

Molecule: 175306 (antisense AAGTCCGGGTCACAGGCGAG; listed as DNA, chemistry not fully specified) [compound 175306]
- %INHIB (human IGF-IR mRNA levels) [15]: 54%
